Assay results reported in patent US9643967B2, “Pyrrolo[3,2-c]pyridine derivatives as TLR inhibitors” (TAKEDA PHARMACEUTICAL COMPANY LIMITED, priority 2013, dated 2017).
Where two headings read alike, the source gives them in different places.

Biological target: T1, mTLR7 (Mus musculus, UniProt P58681)
T1 construct: Splenocytes isolated from male C57/BL6 mice; from tissue; host or cells: splenocytes from the spleen of male C57BL/6 mice
T1 sequence (P58681 27-1050): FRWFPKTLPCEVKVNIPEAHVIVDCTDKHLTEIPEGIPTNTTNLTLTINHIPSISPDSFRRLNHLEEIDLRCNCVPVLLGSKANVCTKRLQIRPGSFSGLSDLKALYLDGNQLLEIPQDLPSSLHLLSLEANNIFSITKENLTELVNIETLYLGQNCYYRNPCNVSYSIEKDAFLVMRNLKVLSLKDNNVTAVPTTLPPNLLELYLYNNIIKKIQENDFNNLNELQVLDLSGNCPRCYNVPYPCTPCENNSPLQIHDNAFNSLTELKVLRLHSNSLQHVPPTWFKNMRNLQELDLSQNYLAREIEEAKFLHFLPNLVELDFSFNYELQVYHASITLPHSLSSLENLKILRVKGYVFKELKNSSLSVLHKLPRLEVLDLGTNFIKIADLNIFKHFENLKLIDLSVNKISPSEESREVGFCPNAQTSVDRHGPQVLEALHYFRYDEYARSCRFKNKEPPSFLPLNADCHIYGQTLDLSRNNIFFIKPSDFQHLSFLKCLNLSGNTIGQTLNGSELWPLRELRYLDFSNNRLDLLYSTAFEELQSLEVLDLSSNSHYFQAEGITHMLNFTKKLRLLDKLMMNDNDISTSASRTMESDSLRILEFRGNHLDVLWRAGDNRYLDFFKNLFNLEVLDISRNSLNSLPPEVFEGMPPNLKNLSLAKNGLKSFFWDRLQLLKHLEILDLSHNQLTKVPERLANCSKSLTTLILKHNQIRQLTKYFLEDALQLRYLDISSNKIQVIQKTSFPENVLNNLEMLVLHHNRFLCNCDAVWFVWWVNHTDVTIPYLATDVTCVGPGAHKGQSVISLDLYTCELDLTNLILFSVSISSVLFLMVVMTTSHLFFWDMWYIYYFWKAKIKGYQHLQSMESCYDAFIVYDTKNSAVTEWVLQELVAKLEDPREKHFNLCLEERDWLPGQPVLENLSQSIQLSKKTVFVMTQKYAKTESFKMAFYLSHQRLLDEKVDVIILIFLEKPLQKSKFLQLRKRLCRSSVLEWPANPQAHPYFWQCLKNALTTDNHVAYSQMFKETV
Assay: mTLR7 antagonism (IL-6 and TNF-α release assay) in mouse splenocytes, R0006/DOTAP stimulated
Format: cell-based
Conditions: 1 μM, mouse splenocytes
In short: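 C57BL6 splenocytes (0.2 million/well) preincubated 30 min with compounds (30 μM to 1 nM, 0.3% DMSO), then stimulated with R0006/DOTAP liposome complex at 1 μg/ml final, overnight, 37 °C, 5% CO2. IL-6 and TNF-α in supernatant by ELISA; IC50 from inhibition curves.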

[1] = IL-6 release, read-out: mTLR7 inhibitory activity (% at 1 μM), IL-6
[2] = TNF-α release, read-out: mTLR7 inhibitory activity (% at 1 μM), TNF-α

SMILES | inhibition at 1 µM [1] | inhibition at 1 µM [2] | mTLR7 inhibitory activity (% at 1 μM), IL-6 (IL-6 release) | mTLR7 inhibitory activity (% at 1 μM), TNF-α (TNF-α release)
Cc1cc2c(cc(CCN3CCOCC3)n2C)c(-c2ccc(N3CCN(C(C)C)CC3)cc2F)n1 [Example B19, 4-[2-[4-[2-fluoro-4-(4-isopropylpiperazin-1-yl)phenyl]-1,6-dimethyl-pyrrolo[3,2-c]pyridin-2-yl]ethyl]morpholine] | 100% | 100% |  | 
COc1cc(N2CCN(C(C)C)CC2)ccc1-c1nc(C)cc2c1cc(CCN1CCOCC1)n2C [Example B20, 4-[2-[4-[4-(4-isopropylpiperazin-1-yl)-2-methoxy-phenyl]-1,6-dimethyl-pyrrolo[3,2-c]pyridin-2-yl]ethyl]morpholine] | 70% | 57% |  | 
Cc1cc2c(cc(CCN3CCOCC3)n2C)c(-c2cccc(N3CCN(C(C)C)CC3)c2)n1 [Example B21, 4-[2-[4-[3-(4-isopropylpiperazin-1-yl)phenyl]-1,6-dimethyl-pyrrolo[3,2-c]pyridin-2-yl]ethyl]morpholine] | 100% | 100% |  | 
COc1cc(-c2nc(C)cc3c2cc(CCN2CCOCC2)n3C)ccc1N1CCN(C(C)C)CC1 [Example B22, 4-[2-[4-[4-(4-isopropylpiperazin-1-yl)-3-methoxy-phenyl]-1,6-dimethyl-pyrrolo[3,2-c]pyridin-2-yl]ethyl]morpholine] | 100% | 100% |  | 
Cc1cc2c(cc(CCN3CCOCC3)n2C)c(-c2ccc(N3CCN(C(C)C)[C@@H](C)C3)cc2)n1 [Example B23, 4-[2-[4-[4-[(3S)-4-isopropyl-3-methyl-piperazin-1-yl]phenyl]-1,6-dimethyl-pyrrolo[3,2-c]pyridin-2-yl]ethyl]morpholine] | 100% | 100% |  | 
Cc1cc2c(cc(CCN3CCOCC3)n2C)c(C2CCC(N3CCN(C(C)C)CC3)CC2)n1 (stereo not drawn) [Example B26, 4-[2-[4-[4-(4-isopropylpiperazin-1-yl)cyclohexyl]-1,6-dimethyl-pyrrolo[3,2-c]pyridin-2-yl]ethyl]morpholine] |  |  | 62% | 47%
Cc1cc2c(cc(CCN3CCOCC3)n2C)c(C2CCC(N3CCN(C(C)C)CC3)CC2)n1 (stereo not drawn) [Example B27, 4-[2-[4-[4-(4-isopropylpiperazin-1-yl)cyclohexyl]-1,6-dimethyl-pyrrolo[3,2-c]pyridin-2-yl]ethyl]morpholine] |  |  | 88% | 77%
Cc1cc2c(cc(CCN3CCOCC3)n2C)c(-c2ccc(C3CCN(C(C)C)CC3)cc2)n1 [Example B31, 4-[2-[4-[4-(1-isopropyl-4-piperidyl)phenyl]-1,6-dimethyl-pyrrolo[3,2-c]pyridin-2-yl]ethyl]morpholine] | 100% | 100% |  | 
CC(C)N1CCN(c2ccc(-c3nccc4[nH]c(CCCN5CCOCC5)cc34)cc2)CC1 [Example C1, 4-[3-[4-[4-(4-isopropylpiperazin-1-yl)phenyl]-1H-pyrrolo[3,2-c]pyridin-2-yl]propyl]morpholine] |  | 100% |  | 
CN1CCN(c2ccc(-c3nccc4[nH]c(CCCN5CCOCC5)cc34)cc2)CC1 [Example C2, 4-[3-[4-[4-(4-methylpiperazin-1-yl)phenyl]-1H-pyrrolo[3,2-c]pyridin-2-yl]propyl]morpholine] |  | 100% |  | 
Cc1cc2[nH]c(CCCN3CCOCC3)cc2c(-c2ccc(N3CCN(C(C)C)CC3)cc2)n1 [Example C3, 4-[3-[4-[4-(4-isopropylpiperazin-1-yl)phenyl]-6-methyl-1H-pyrrolo[3,2-c]pyridin-2-yl]propyl]morpholine] | 100% | 100% |  | 
Cc1cc2[nH]c(CCCN3CCCCC3)cc2c(-c2ccc(N3CCN(C(C)C)CC3)cc2)n1 [Example C5, 4-[4-(4-isopropylpiperazin-1-yl)phenyl]-6-methyl-2-[3-(1-piperidyl)propyl]-1H-pyrrolo[3,2-c]pyridine] | 100% | 97% |  | 
Cc1cc2c(cc(CCCN3CCOCC3)n2C)c(-c2ccc(N3CCN(C(C)C)CC3)cc2)n1 [Example C6, 4-[3-[4-[4-(4-isopropylpiperazin-1-yl)phenyl]-1,6-dimethyl-pyrrolo[3,2-c]pyridin-2-yl]propyl]morpholine] | 100% | 100% |  | 
